Test results published in US8471005B2 (Cephalon, Inc., priority 2008, dated 2013).

Tests used:
[1] = target: T1, ALK (Homo sapiens, UniProt Q9UM73); assay: ALK Kinase Assay (ELISA/TRF, PLC-γ substrate); format: biochemical; details: ALK Kinase Inhibition; read-out: ALK Potency
T1 construct: host or cells: baculovirus expression system
Procedure, shortened: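 PLC-γ substrate coated at 10 μg/mL in TBS; reaction started with 30 ng/ml ALK, run 15 min at 37° C. Phosphoproduct detected by TRF with Eu-N1-labeled PT66 anti-phosphotyrosine antibody. IC50 from sigmoidal variable-slope fit of percent inhibition versus log concentration.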

[2] = target: T2, JAK2 (Homo sapiens, UniProt O60674); assay: Recombinant Human JAK2 Kinase Assay (TRF); format: biochemical; details: JAK2 Kinase Inhibition; read-out: JAK2 Potency
T2 construct: host or cells: baculovirus expression system
Procedure, shortened: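 Europium-labelled PY100 antibody reported tyrosine phosphorylation of a Neutravidin-captured biotinyl 15-mer peptide by JAK2 (baculovirus-expressed, 15 ng/ml). Conditions: 20 mM HEPES pH 7.2, 0.2 μM ATP, 1 mM MnCl2, 0.1% BSA, DMSO 2.5% final, 20 min at room temperature.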

T1 sequence (Q9UM73 19-1620): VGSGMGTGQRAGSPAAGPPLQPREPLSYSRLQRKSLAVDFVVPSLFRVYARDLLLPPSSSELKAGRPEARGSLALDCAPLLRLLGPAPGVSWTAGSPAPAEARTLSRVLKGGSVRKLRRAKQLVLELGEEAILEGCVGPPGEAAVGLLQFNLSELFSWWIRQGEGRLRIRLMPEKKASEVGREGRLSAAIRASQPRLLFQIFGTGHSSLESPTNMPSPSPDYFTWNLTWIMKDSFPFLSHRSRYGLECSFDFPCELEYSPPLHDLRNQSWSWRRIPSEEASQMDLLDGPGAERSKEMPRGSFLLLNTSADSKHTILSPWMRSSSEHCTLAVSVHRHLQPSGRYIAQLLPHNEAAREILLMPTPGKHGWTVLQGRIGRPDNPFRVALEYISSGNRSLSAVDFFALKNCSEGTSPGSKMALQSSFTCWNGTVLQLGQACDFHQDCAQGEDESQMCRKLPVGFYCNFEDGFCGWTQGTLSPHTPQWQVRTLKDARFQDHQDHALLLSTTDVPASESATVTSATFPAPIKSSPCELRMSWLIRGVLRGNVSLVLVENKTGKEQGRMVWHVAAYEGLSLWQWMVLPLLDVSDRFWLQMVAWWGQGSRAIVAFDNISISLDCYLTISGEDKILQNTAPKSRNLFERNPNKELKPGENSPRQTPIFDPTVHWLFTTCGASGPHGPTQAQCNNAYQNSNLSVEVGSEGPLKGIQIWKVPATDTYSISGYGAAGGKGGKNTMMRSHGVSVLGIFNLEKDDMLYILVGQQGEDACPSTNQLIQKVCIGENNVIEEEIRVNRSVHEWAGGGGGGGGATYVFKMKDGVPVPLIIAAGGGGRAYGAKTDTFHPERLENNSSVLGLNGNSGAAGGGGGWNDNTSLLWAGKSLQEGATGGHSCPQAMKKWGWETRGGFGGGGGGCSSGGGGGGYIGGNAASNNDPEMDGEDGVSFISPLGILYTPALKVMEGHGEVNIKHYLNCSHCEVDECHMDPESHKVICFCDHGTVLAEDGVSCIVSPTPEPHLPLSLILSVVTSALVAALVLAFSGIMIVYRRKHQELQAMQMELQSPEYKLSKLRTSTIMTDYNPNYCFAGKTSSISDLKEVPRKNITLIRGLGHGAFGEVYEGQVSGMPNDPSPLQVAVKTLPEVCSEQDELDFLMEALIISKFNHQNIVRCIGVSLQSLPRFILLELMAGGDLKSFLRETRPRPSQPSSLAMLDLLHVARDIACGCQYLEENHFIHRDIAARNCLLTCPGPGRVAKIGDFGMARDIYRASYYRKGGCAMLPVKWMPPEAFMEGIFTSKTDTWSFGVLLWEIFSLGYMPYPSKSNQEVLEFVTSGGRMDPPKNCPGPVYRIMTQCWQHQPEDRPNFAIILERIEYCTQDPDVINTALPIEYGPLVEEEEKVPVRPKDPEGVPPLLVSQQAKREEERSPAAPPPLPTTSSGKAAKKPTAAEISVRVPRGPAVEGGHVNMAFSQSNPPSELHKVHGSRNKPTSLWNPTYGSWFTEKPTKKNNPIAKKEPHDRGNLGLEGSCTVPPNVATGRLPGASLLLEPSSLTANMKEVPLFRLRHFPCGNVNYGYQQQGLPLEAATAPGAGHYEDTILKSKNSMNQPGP
T2 sequence (O60674 whole entry): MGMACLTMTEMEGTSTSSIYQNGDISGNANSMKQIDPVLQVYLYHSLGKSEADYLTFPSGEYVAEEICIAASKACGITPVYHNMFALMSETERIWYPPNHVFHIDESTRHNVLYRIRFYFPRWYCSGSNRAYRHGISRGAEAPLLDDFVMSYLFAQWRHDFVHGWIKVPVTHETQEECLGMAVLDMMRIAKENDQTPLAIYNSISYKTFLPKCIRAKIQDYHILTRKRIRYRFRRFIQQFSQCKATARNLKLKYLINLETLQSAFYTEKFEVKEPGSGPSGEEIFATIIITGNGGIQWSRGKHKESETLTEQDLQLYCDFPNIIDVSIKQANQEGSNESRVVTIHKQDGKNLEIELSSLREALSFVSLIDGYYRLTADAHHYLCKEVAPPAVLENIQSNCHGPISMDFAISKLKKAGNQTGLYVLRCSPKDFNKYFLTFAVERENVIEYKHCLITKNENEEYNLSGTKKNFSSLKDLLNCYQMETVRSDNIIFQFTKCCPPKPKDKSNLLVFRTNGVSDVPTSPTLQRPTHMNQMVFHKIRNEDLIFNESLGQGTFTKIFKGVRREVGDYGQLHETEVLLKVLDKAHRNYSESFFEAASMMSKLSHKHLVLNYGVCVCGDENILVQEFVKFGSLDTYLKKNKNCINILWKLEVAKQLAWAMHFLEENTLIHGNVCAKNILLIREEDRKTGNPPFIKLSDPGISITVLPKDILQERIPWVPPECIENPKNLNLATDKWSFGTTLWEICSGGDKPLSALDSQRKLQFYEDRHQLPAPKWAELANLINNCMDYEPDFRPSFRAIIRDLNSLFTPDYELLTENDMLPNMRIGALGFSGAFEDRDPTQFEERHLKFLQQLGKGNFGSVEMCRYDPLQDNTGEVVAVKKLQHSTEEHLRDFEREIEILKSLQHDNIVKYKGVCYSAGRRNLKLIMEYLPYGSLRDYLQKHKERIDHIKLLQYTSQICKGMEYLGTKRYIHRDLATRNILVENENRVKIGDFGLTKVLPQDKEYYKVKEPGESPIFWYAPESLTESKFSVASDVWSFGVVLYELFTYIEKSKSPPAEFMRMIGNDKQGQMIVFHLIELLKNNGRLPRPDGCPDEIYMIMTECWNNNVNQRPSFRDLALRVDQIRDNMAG

**Q.** Which results are given for `CS(=O)(=O)c1ccc(-c2ccc3cnc(Nc4ccc(N5CCCCC5)cc4)nn23)cc1` [Example 61, [7-(4-Methanesulfonyl-phenyl)-pyrrolo[2,1-f][1,2,4]triazin-2-yl]-(4-piperidin-1-yl-phenyl)-amine]?
**A.** IC50 [1]: > 10 µM; IC50 [2]: < 0.1 µM

**Q.** What does the source list for `COc1cc(N2CCN(C)CC2)ccc1Nc1ncc2ccc(-c3ccc(S(C)(=O)=O)cc3)n2n1` [Example 62, [7-(4-Methanesulfonyl-phenyl)-pyrrolo[2,1-f][1,2,4]triazin-2-yl]-[2-methoxy-4-(4-methyl-piperazin-1-yl)-phenyl]-amine]?
**A.** IC50 [1]: 0.1 to 1 µM; IC50 [2]: < 0.1 µM

**Q.** Which IC50 [1] does the source give for `O=S(=O)(c1ccc(-c2ccc3cnc(Nc4ccc(N5CCOCC5)cc4)nn23)cc1)N1CCCC1` [Example 63, (4-Morpholin-4-yl-phenyl)-{7-[4-(pyrrolidine-1-sulfonyl)-phenyl]-pyrrolo[2,1-f][1,2,4]triazin-2-yl}-amine] here?
**A.** > 10 µM

**Q.** And the IC50 [2]?
**A.** < 0.1 µM

**Q.** `COc1cc(Nc2ncc3ccc(-c4cccc(Cl)c4)n3n2)ccc1N1CCN(C)CC1` [Example 64, [7-(3-Chloro-phenyl)-pyrrolo[2,1-f][1,2,4]triazin-2-yl]-[3-methoxy-4-(4-methyl-piperazin-1-yl)-phenyl]-amine] was tested. Which IC50 [1] did it give?
**A.** < 0.1 µM

**Q.** And the IC50 [2]?
**A.** < 0.1 µM

**Q.** How did the IC50 [1] turn out when `COc1cc(Nc2ncc3ccc(-c4cccc(Cl)c4)n3n2)ccc1N1CCOCC1` [Example 65, [7-(3-Chloro-phenyl)-pyrrolo[2,1-f][1,2,4]triazin-2-yl]-(3-methoxy-4-morpholin-4-yl-phenyl)-amine] was run?
**A.** 0.1 to 1 µM

**Q.** And the IC50 [2]?
**A.** < 0.1 µM

**Q.** Which results are given for `Cc1cc(Nc2ncc3ccc(-c4cccc(Cl)c4)n3n2)ccc1N1CCOCC1` [Example 66, [7-(3-Chloro-phenyl)-pyrrolo[2,1-f][1,2,4]triazin-2-yl]-(3-methyl-4-morpholin-4-yl-phenyl)-amine]?
**A.** IC50 [1]: 1 to 10 µM; IC50 [2]: < 0.1 µM

**Q.** `Cc1cc(N2CCN(C)CC2)ccc1Nc1ncc2ccc(-c3ccc(S(C)(=O)=O)cc3)n2n1` [Example 67, [7-(4-Methanesulfonyl-phenyl)-pyrrolo[2,1-f][1,2,4]triazin-2-yl]-[2-methyl-4-(4-methyl-piperazin-1-yl)-phenyl]-amine] was tested. Which IC50 [1] did it give?
**A.** 0.1 to 1 µM

**Q.** And the IC50 [2]?
**A.** < 0.1 µM

**Q.** How did the IC50 [1] turn out when `Cc1cc(N2CCN(C)CC2)ccc1Nc1ncc2ccc(-c3cccc(Cl)c3)n2n1` [Example 68, [7-(3-Chloro-phenyl)-pyrrolo[2,1-f][1,2,4]triazin-2-yl]-[2-methyl-4-(4-methyl-piperazin-1-yl)-phenyl]-amine] was run?
**A.** < 0.1 µM

**Q.** And the IC50 [2]?
**A.** < 0.1 µM

**Q.** With `Cc1cc(Nc2ncc3ccc(-c4cccc(Cl)c4)n3n2)ccc1N1CCN(C)CC1` [Example 69, [7-(3-Chloro-phenyl)-pyrrolo[2,1-f][1,2,4]triazin-2-yl]-[3-methyl-4-(4-methyl-piperazin-1-yl)-phenyl]-amine] as the compound, how does the IC50 [1] read?
**A.** < 0.1 µM

**Q.** What about the IC50 [2] of the same compound?
**A.** < 0.1 µM

**Q.** With `FC(F)(F)c1ccc(Cl)c(-c2ccc3cnc(Nc4ccc(N5CCOCC5)cc4)nn23)c1` [Example 70, [7-(2-Chloro-5-trifluoromethyl-phenyl)-pyrrolo[2,1-f][1,2,4]triazin-2-yl]-(4-morpholin-4-yl-phenyl)-amine] as the compound, how does the IC50 [1] read?
**A.** 1 to 10 µM

**Q.** What about the IC50 [2] of the same compound?
**A.** < 0.1 µM

**Q.** Which IC50 [1] does the source give for `CN(C)S(=O)(=O)c1ccc(-c2ccc3cnc(Nc4ccc(N5CCOCC5)cc4)nn23)cc1` [Example 71, N,N-Dimethyl-4-[2-(4-morpholin-4-yl-phenylamino)-pyrrolo[2,1-f][1,2,4]triazin-7-yl]-benzenesulfonamide] here?
**A.** > 10 µM

**Q.** And the IC50 [2]?
**A.** < 0.1 µM

**Q.** `O=C(c1ccccc1)c1ccc2cnc(Nc3ccc(N4CCOCC4)cc3)nn12` [Example 72, [2-(4-Morpholin-4-yl-phenylamino)-pyrrolo[2,1-f][1,2,4]triazin-7-yl]-phenyl-methanone] was tested. Which IC50 [1] did it give?
**A.** 1 to 10 µM

**Q.** What about the IC50 [2] of the same compound?
**A.** < 0.1 µM

**Q.** Which results are given for `COc1ccc(-c2ccc3cnc(Nc4ccc(N5CCN(C)CC5)cc4OC)nn23)cn1` [Example 73, [2-Methoxy-4-(4-methyl-piperazin-1-yl)-phenyl]-[7-(6-methoxy-pyridin-3-yl)-pyrrolo[2,1-f][1,2,4]triazin-2-yl]-amine]?
**A.** IC50 [1]: < 0.1 µM; IC50 [2]: < 0.1 µM

**Q.** Which IC50 [1] does the source give for `Cc1ccc(S(=O)(=O)N(C)C)cc1-c1ccc2cnc(Nc3ccc(N4CCN(C)CC4)cc3)nn12` [Example 74, 4,N,N-Trimethyl-3-{2-[4-(4-methyl-piperazin-1-yl)-phenylamino]-pyrrolo[2,1-f][1,2,4]triazin-7-yl}-benzenesulfonamide] here?
**A.** 0.1 to 1 µM

**Q.** And the IC50 [2]?
**A.** < 0.1 µM

**Q.** Which results are given for `COc1cc(N2CCN(C)CC2)ccc1Nc1ncc2ccc(-c3cc(S(=O)(=O)N(C)C)ccc3C)n2n1` [Example 75, 3-{2-[2-Methoxy-4-(4-methyl-piperazin-1-yl)-phenylamino]-pyrrolo[2,1-f][1,2,4]triazin-7-yl}-4,N,N-trimethyl-benzenesulfonamide]?
**A.** IC50 [1]: 0.1 to 1 µM; IC50 [2]: 0.1 to 1 µM

**Q.** `COc1cc(N2CCN(C)CC2)ccc1Nc1ncc2ccc(-c3cccc(S(C)(=O)=O)c3)n2n1` [Example 76, [7-(3-Methanesulfonyl-phenyl)-pyrrolo[2,1-f][1,2,4]triazin-2-yl]-[2-methoxy-4-(4-methyl-piperazin-1-yl)-phenyl]-amine] was tested. Which IC50 [1] did it give?
**A.** < 0.1 µM

**Q.** What about the IC50 [2] of the same compound?
**A.** < 0.1 µM

**Q.** How did the IC50 [1] turn out when `COc1cc(N2CCN(C)CC2)ccc1Nc1ncc2ccc(-c3ccc(C#N)nc3)n2n1` [Example 77, 5-{2-[2-Methoxy-4-(4-methyl-piperazin-1-yl)-phenylamino]-pyrrolo[2,1-f][1,2,4]triazin-7-yl}-pyridine-2-carbonitrile] was run?
**A.** 0.1 to 1 µM

**Q.** What about the IC50 [2] of the same compound?
**A.** < 0.1 µM

**Q.** How did the IC50 [1] turn out when `CN1CCN(c2ccc(Nc3ncc4ccc(Sc5ccccc5)n4n3)cc2)CC1` [Example 78, [4-(4-Methyl-piperazin-1-yl)-phenyl]-(7-phenylsulfanyl-pyrrolo[2,1-f][1,2,4]triazin-2-yl)-amine] was run?
**A.** < 0.1 µM

**Q.** What about the IC50 [2] of the same compound?
**A.** < 0.1 µM

**Q.** `Clc1cccc(-c2ccc3cnc(Nc4ccc(N5CCOCC5)nc4)nn23)c1` [Example 79, [7-(3-Chloro-phenyl)-pyrrolo[2,1-f][1,2,4]triazin-2-yl]-(6-morpholin-4-yl-pyridin-3-yl)-amine] was tested. Which IC50 [1] did it give?
**A.** > 10 µM

**Q.** What about the IC50 [2] of the same compound?
**A.** < 0.1 µM

**Q.** How did the IC50 [1] turn out when `Clc1cc(N2CCOCC2)ccc1Nc1ncc2c(Cl)cc(-c3ccccc3)n2n1` [Example 80, (2-Chloro-4-morpholin-4-yl-phenyl)-(5-chloro-7-phenyl-pyrrolo[2,1-f][1,2,4]triazin-2-yl)-amine] was run?
**A.** > 10 µM

**Q.** What about the IC50 [2] of the same compound?
**A.** < 0.1 µM

**Q.** Which IC50 [1] does the source give for `CN1CCN(c2ccc(Nc3ncc4ccc(-c5cccc(S(C)(=O)=O)c5)n4n3)cc2)CC1` [Example 82, [7-(3-Methanesulfonyl-phenyl)-pyrrolo[2,1-f][1,2,4]triazin-2-yl]-[4-(4-methyl-piperazin-1-yl)-phenyl]-amine] here?
**A.** 0.1 to 1 µM

**Q.** What about the IC50 [2] of the same compound?
**A.** < 0.1 µM

**Q.** Which results are given for `CN1CCN(c2ccc(Nc3ncc4ccc(-c5ccc(S(=O)(=O)N(C)C)cc5)n4n3)cc2)CC1` [Example 83, N,N-Dimethyl-4-{2-[4-(4-methyl-piperazin-1-yl)-phenylamino]-pyrrolo[2,1-f][1,2,4]triazin-7-yl}-benzenesulfonamide]?
**A.** IC50 [1]: 0.1 to 1 µM; IC50 [2]: < 0.1 µM

**Q.** What does the source list for `CN1CCN(c2ccc(Nc3ncc4c(Br)cc(Br)n4n3)cc2)CC1` [Example 84, (5,7-Dibromo-pyrrolo[2,1-f][1,2,4]triazin-2-yl)-[4-(4-methyl-piperazin-1-yl)-phenyl]-amine]?
**A.** IC50 [1]: 1 to 10 µM; IC50 [2]: < 0.1 µM

**Q.** With `CN(C)S(=O)(=O)c1ccc(-c2ccc3cnc(Nc4ccc(N5CCCCC5)cc4)nn23)cc1` [Example 86, N,N-Dimethyl-4-[2-(4-piperidin-1-yl-phenylamino)-pyrrolo[2,1-f][1,2,4]triazin-7-yl]-benzenesulfonamide] as the compound, how does the IC50 [1] read?
**A.** > 10 µM

**Q.** And the IC50 [2]?
**A.** < 0.1 µM

**Q.** Which IC50 [1] does the source give for `CS(=O)(=O)c1ccc(-c2ccc3cnc(Nc4ccc(N5CCC(CO)CC5)cc4)nn23)cc1` [Example 87, (1-{4-[7-(4-Methanesulfonyl-phenyl)-pyrrolo[2,1-f][1,2,4]triazin-2-ylamino]-phenyl}-piperidin-4-yl)-methanol] here?
**A.** 1 to 10 µM

**Q.** What about the IC50 [2] of the same compound?
**A.** < 0.1 µM

**Q.** What does the source list for `CS(=O)(=O)c1ccc(-c2ccc3cnc(Nc4ccc(N5CCN(CCO)CC5)cc4)nn23)cc1` [Example 88, 2-(4-{4-[7-(4-Methanesulfonyl-phenyl)-pyrrolo[2,1-f][1,2,4]triazin-2-ylamino]-phenyl}-piperazin-1-yl)-ethanol]?
**A.** IC50 [1]: 0.1 to 1 µM; IC50 [2]: < 0.1 µM

**Q.** `COCCN1CCc2ccc(Nc3ncc4ccc(-c5ccc(S(C)(=O)=O)cc5)n4n3)cc2CC1` [Example 89, [7-(4-Methanesulfonyl-phenyl)-pyrrolo[2,1-f][1,2,4]triazin-2-yl]-[3-(2-methoxy-ethyl)-2,3,4,5-tetrahydro-1H-benzo[d]azepin-7-yl]-amine] was tested. Which IC50 [1] did it give?
**A.** 0.1 to 1 µM

**Q.** What about the IC50 [2] of the same compound?
**A.** < 0.1 µM

**Q.** How did the IC50 [1] turn out when `CN1CCN(c2ccc(Nc3ncc4c(Br)cc(-c5ccc(S(C)(=O)=O)cc5)n4n3)cc2)CC1` [Example 91, [5-Bromo-7-(4-methanesulfonyl-phenyl)-pyrrolo[2,1-f][1,2,4]triazin-2-yl]-[4-(4-methyl-piperazin-1-yl)-phenyl]-amine] was run?
**A.** 0.1 to 1 µM

**Q.** What about the IC50 [2] of the same compound?
**A.** < 0.1 µM

**Q.** Which results are given for `CC1(C)CCC(=O)Nc2cc(Nc3ncc4ccc(-c5ccc(S(C)(=O)=O)cc5)n4n3)ccc21` [Example 92, 8-[7-(4-Methanesulfonyl-phenyl)-pyrrolo[2,1-f][1,2,4]triazin-2-ylamino]-5,5-dimethyl-1,3,4,5-tetrahydro-benzo[b]azepin-2-one]?
**A.** IC50 [1]: 1 to 10 µM; IC50 [2]: < 0.1 µM

**Q.** `COc1ccccc1-c1ccc2cnc(Nc3ccc(OCCN4CCN(C)CC4)cc3)nn12` [Example 94, [7-(2-Methoxy-phenyl)-pyrrolo[2,1-f][1,2,4]triazin-2-yl]-{4-[2-(4-methyl-piperazin-1-yl)-ethoxy]-phenyl}-amine] was tested. Which IC50 [1] did it give?
**A.** < 0.1 µM

**Q.** What about the IC50 [2] of the same compound?
**A.** < 0.1 µM
